The values below come from paper PMC5598150 (Toxicology Reports, 2015).

A value given as a limit tells only on which side of the number the result lay.

One series has as its system rat. The note with it: ref Hazardous Substances Data Bank (HSDB); cited from earlier work.
Series [1] has as its system primary rat cortical neurons. Put plainly: Live and Dead cell staining of primary neuronal cultures. The series is classed as cell-based. The note with it: 24 h.
Series [2] has as its system human neuroblastoma SK-N-SH cells. Put plainly: MTT assay of cell viability in SK-N-SH neuroblastoma cells. Type of series: cell-based.
For series [3] the following is noted: partition coefficient between octanol and water; cited from earlier work.
A further series concerns primary cultured cells. Particulars: cited from earlier work.

Broadly, the IC50 is the concentration that inhibits the measured activity by half. `CCCCC(CC)CO` (centres unmarked) [2-Ethyl-1-hexanol]: the “LD50 rat (intraperitoneal)” value in the series on rat is reported as 500 mg/kg. Further, the “Survival of primary cultured neurons” value in series [1] (0.5 mM) is “almost all of the primary cultured neurons died”. The same compound yielded an IC50 in series [2] (Homo sapiens, SK-N-SH, 24 h) of 15.1 µM. Also, the “log Pow” value in series [3] was 2.73.
For `C=CC(C)(O)CCC=C(C)C` (centres unmarked) [Linalool], the “LD50 rat (intraperitoneal)” value in the series with rat is recorded as 307 mg/kg. Further, in series [1] (1 mM), the “Survival of primary cultured neurons” value was “almost all of the cells in culture dishes died”. In addition, the IC50 in series [2] (Homo sapiens, SK-N-SH, 24 h) came to 1330 µM.
For the compound `CCCCCCCCC=O` [Nonanal], the “Survival of primary cultured neurons” value in series [1] (0.5 mM) was “almost all of the primary cultured neurons died”. The compound further yielded an IC50 in series [2] (Homo sapiens, SK-N-SH, 24 h) of 8.31 µM. The “log Pow” value in series [3] was 3.27.
With `OCCc1ccccc1` [Phenethyl alcohol], the “Survival of primary cultured neurons” value in series [1] (1 mM) was “almost all of the cells in culture dishes survived”. Moreover, the IC50 in series [2] (Homo sapiens, SK-N-SH, 24 h) is 2390 µM.
Take `Cc1ccccc1` [Toluene, reference compound]: the “Concentration causing the death of all primary cultured cells” value in the series on primary cultured cells is 2000 µM. Further, the “LD50 rat (intraperitoneal)” value in the series on rat is 1332 mg/kg. Inhibition in series [2] (Homo sapiens, SK-N-SH, 24 h) was half-maximal at 850 µM (IC50).
As for `CC/C=C\CCO` [cis-3-Hexen-1-ol], the “Survival of primary cultured neurons” value in series [1] (1 mM) is “almost all of the cells in culture dishes died”. In addition, it took 2300 µM to reach half-maximal inhibition in series [2] (Homo sapiens, SK-N-SH, 24 h) (IC50).
As for `CCCCCCCC=O` [n-Octanal], the “Survival of primary cultured neurons” value in series [1] (0.5 mM) is “almost all of the primary cultured neurons died”. Also, in series [2] (Homo sapiens, SK-N-SH, 24 h), the half-inhibitory concentration (IC50) turned out to be 37.2 µM. For the same compound, the “log Pow” value in series [3] is given as 2.78.
With `CCCO` [n-Propyl alcohol], in the series with rat, the “LD50 rat (intraperitoneal)” value is 164 mg/kg. In series [1] (1 mM), the “Survival of primary cultured neurons” value was “almost all of the cells in culture dishes survived”. Also, in series [2] (SK-N-SH cells, MTT assay, 24 h exposure), the IC50 was > 5000 µM.
